Assay results as given in EP2371816A1, “Aminocyclohexenone, their preparation and use as medicament against oxidative stress” (ABIOGEN PHARMA S.p.A., priority 2010, dated 2011).

What was measured:
C6 cells (rat glioma) = assay: In vitro inhibition of CHP-induced oxidative stress (DCF fluorescence) in C6 cells; assay type: cell-based; conditions: 500 µM CHP, compound 4, 20, 100 and 500 µM, 30 minutes at 37 °C, range given for both cell lines together
Procedure: (§1) The method used was essentially the one reported by Rüweler M. et al. ("Inhibition of peroxide-induced radical generation by plant polyphenols in C6 astroglioma cells" (2008) Toxicol in vitro 22, 1377-81), with a few minor modifications.
(§2) The cells were seeded in phenol-red free DMEM (Sigma Aldrich) into 96-well plates with 5% FBS and 20 mM HEPES at a density of 40,000 cells/well. After 48 hours, the medium was substituted by HBSS (Hanks' Balanced Salt Solution, Sigma) containing 10 µM of dihydro-2',7'-dichlorofluorescein diacetate (H2DCF-DA, Sigma Aldrich) and incubated in darkness for 30 minutes at 37 °C, in order to load the cells with fluorescent dye. H2DCF-DA was hydrolyzed enzymatically by the intracellular esterases to form non-fluorescent H2DCF, which was then rapidly oxidized to form 2',7'-dichlorofluorescein (DCF) being highly fluorescent in the presence of reactive species (RS). The intensity of DCF fluorescence is directly proportional to the amount of RS formed.
(§3) After carrying out two washes, the cells were exposed to 500 µM of CHP and various concentrations (4, 20, 100 and 500 µM) of the compounds of the invention for 30 minutes at 37 °C. Fluorescence was then measured, after cell washing, by a microplate reader at an excitation wavelength of 485 nm and an emission wavelength of 535 nm.
(§4) Six wells per plate per concentration of test composition (compound + CHP) and per control (HBSS without CHP) were measured and 12 wells were used as reference for CHP-induced stress. In addition, each 96-well plate contained 6 wells that received the highest concentration of the tested compounds without CHP, to investigate whether the compounds of the invention alone were able to induce cellular radical formation.
(§5) When using this assay, it should be borne in mind that DCF fluorescence is a generalized indicator of oxidative stress rather than of any particular reactive species, i.e. it is not a direct assay for H2O2 or other reactive species (Halliwell B, Whiteman M. (2004) "Measuring reactive species and oxidative damage in vivo and in cell culture: how should you do it and what do the results mean?" Br. J. Pharmacol. 142 231-255). Therefore, when an increase in DCF fluorescence induced by exposure of cells to CHP was measured, as was undertaken in these assays, it was not possible to deduce which reactive species was responsible. Inhibition of CHP-induced fluorescence was evaluated by means of different concentrations of the compounds of the invention and comparative compounds such as Trolox and edaravone.

[1] = Acute toxicity study, intraperitoneal single dose (OECD guideline no. 420); assay type: in vivo; conditions: result in words, with reference to Example 13
Procedure: This study was carried out with the purpose of investigating the toxicity of a single dose of the listed compounds administered to ICR (CD-1) female mice. According to the current OECD guideline no.
The mice used were all female and were treated by intraperitoneal injection administration. The animals were observed individually and regularly for the first 4 hours and within 24 hours after administration, and then twice a day for the whole observation period. As soon as the animals were stabilized, observations at the weekend were undertaken once only during the day.
The evaluated parameters included the survival, body weight development, variations in skin and fur, changes in ocular, conjunctival and buccal mucous membranes, changes in activities of the respiratory, circulatory, autonomous and central nervous systems, changes in somatomotor activity and in behaviour.
Any appearance of tremors, convulsions, salivation, diarrhea, lethargy, drowsiness and coma were attentively and regularly monitored. At the end of the observation period, a post-mortem was carried out on all the animals.

[2] = test system: BAEC cells (bovine aortic endothelial); assay: In vitro inhibition of CHP-induced oxidative stress (DCF fluorescence) in BAEC cells; assay type: cell-based; conditions: 500 µM CHP, compound 4, 20, 100 and 500 µM, 30 minutes at 37 °C, range given for both cell lines together
Procedure: as §1, §2, §3, §4, §5

[3] = TEAC method (Trolox Equivalent Antioxidant Capacity Assay); conditions: ratio of gradient to gradient of reference (trolox); 37 °C, 650 nm, pH 4.5
Excerpt: This assay is used to measure the total antioxidant activity of pure substances, biological fluids and plant compounds and is based on the reaction of antioxidants with the cation radical ABTS^˙+ (2,2'-azinobis(3-ethylbenzothiazolin-6-sulphonate)). This cation radical is metastable and has to be generated just before the experiment by reacting ABTS with hydrogen peroxide in the presence of HRP.
This radical can be reduced, with consequent loss of absorbance, by an antioxidant whose scavenging capacity can be measured spectrophotometrically at 650 nm. The test is carried out at 37 °C and the results are obtained from a comparison with Trolox (a synthetic antioxidant and hydrophilic analogue of vitamin E).
The ABTS solution S1 was prepared as follows: • 20 mg of ABTS were added to 50 mM of citric acid buffer (40 ml) at pH=4.5 and to the resulting solution there was added an aqueous solution of HRP (4.4 mg, 400 µl) and an aqueous solution of H2O2 (10 µl of a 30% solution diluted with 16.3 ml of water).
For each of the compounds (2), (6) and (7), as synthesized above, there was prepared a 600 µM solution in water, methanol or DMSO according to its solubility, as well as a Trolox solution as reference.
Each solution was diluted to produce 6 solutions each at a concentration between 25 µM and 300 µM. From each of the diluted and divided solutions, there were withdrawn 20 µl to which 200 µl of solution S1 were then added.
The decrease in absorbance of each solution thus obtained was monitored at 650 nm until a stable value was reached (about 90 minutes).
For each set of 6 solutions and for the reference trolox solution, the absorption was given in graph form as a function of the amount of compound (nmol) in the solution. The gradient of the straight line obtained by linear interpolation was determined according to the least squares method. The TEAC value of each compound of the invention is given in the table below and is expressed as the ratio between the gradient of the resulting straight line and the gradient of the reference (trolox) straight line.

Row | Structure (SMILES) | Inhibition of CHP-induced fluorescence (C6 cells (rat glioma)) | toxicity evaluation in vivo (tolerability) [1] | Inhibition of CHP-induced fluorescence [2] | TEAC [3]
1 | CC1(C)CC(=O)C=C(NCCN2CCCCC2)C1 [(1), 5,5-dimethyl-3-(2-(piperidin-1-yl)ethylamino)cyclohex-2-enone] | effective | well tolerated | effective | –
2 | O=C1C=C(NCCN2CCCCC2)CC(c2ccccc2)C1 (stereo not shown) [(3), 5-phenyl-3-(2-(piperidin-1-yl)ethylamino)cyclohex-2-enone] | effective | – | effective | –
3 | CC1(C)CC(=O)C=C(NN2CCCCC2)C1 [(6), 5,5-dimethyl-3-(piperidin-1-ylamino)cyclohex-2-enone] | – | well tolerated | – | 1.2
